Experimental data reported in patent US12655111B2, “Phenazine-based compounds” (CMBLU Energy AG, priority 2020, dated 2026).

Assay: Redox flow battery cell test (flow-through laboratory cell), galvanostatic charge/discharge cycling with phenazine anolyte and ferrocyanide catholyte
Assay type: physicochemical
Settings: range: (i) upper charging value minus initial discharging value, (ii) initial charging value minus ultimate discharging value; from Table 1 (for II 0.87M)
Excerpt: FT-Cells (“Flow Through”):
For electrochemical characterization, a small laboratory cell was used. A graphite felt (with an area of 6 cm^2, 6 mm in thickness, supplier: SGL Sigracell GFA 6EA) in combination with a bipolar plate (4.1 cm×4.1 cm, SGL Sigracell TF6) was employed as both the positive and negative electrode. A cation exchange membrane (630K or 620PE, supplier: fumatech) was used to separate the positive and negative electrolytes. The membrane was conditioned in 0.5 M Base (KOH/NaOH=50 mol %/50 mol %) for at least 150 h prior to each test. An anolyte volume of 12 mL was used for every experiment while the pH of the anolyte solution is adjusted using a 1:1 mixture of KOH/NaOH or solely KOH. The catholyte compositions are listed in table 1 and the catholyte was always employed in at least 1.05 fold stoichiometric excess in order to obtain charge limitation solely due to the phenazine electrolyte (see table 1). The catholyte volume for (IV) is 60 mL (0.4 M KOH; 0.4 M NaOH), for (III) 30 mL (0.2 M KOH and 0.2 M NaOH), and for (I) 20 mL (0.3 M KOH and 0.3 M NaOH). Both electrolytes were pumped by peristaltic pumps (Drifton BT100-1L, Cole Parmer Ismatec MCP and BVP Process IP 65) at a rate of 24 mL/min to the corresponding electrodes, respectively. The electrolyte reservoirs were purged with N2 gas for 1 h before start of charging and the inert atmosphere was maintained during the course of the experiments.
Electrochemical testing was performed on a BaSyTec (BaSyTec GmbH, 89176 Asselfingen, Germany) or a Bio-Logic (Bio-Logic Science Instruments, Seyssinet-Pariset 38170, France) battery test system. For galvanostatic cycling, the cell was charged at a current density of […] and discharged at the same current density with the in table 1 listed voltage cut-offs. […]

difference in plateaus [V] | SMILES
0.29-0.32 V | O=S(=O)(O)c1ccc2nc3cc(O)c(O)cc3nc2c1 [DHPS, 7,8-Dihydroxyphenazine-2-sulfonic acid, reference compound]
0.15-0.16 V | CN(C)c1cc2nc3ccc(S(=O)(=O)O)cc3nc2cc1O [I, 7-(dimethylamino)-8-hydroxyphenazine-2-sulfonic acid]
0.20-0.25 V | CN(CCO)c1cc2nc3ccc(S(=O)(=O)O)cc3nc2cc1O [IV, 7-[(2-hydroxyethyl)(methyl)amino]-8-hydroxyphenazine-2-sulfonic acid]
